In patent US6534482B1, “Expression vectors for stimulating an immune response and methods of using the same” (priority 1998, dated 2003):
“Also recorded” adds a separate entry of the source.

Columns and labels:
CTL response = tested on: CTL response; parameters: species or system HLA-A2.1/K^b-H-2^bxs transgenic mice; settings: mouse; for Immunogenicity In Vivo (IFA): No. CTL-Positive Cultures: sc; for immunogenicity of the peptide administered in IFA (in words): in vivo
[1] = mouse, in vivo; cited from earlier work
[2] = tested on: mouse and human MHC class II haplotypes; settings: wide range of mouse and human MHC class II haplotypes; cited from earlier work

Compound	Immunogenicity In Vivo (IFA): CTL Response (Geo. Mean ΔLU) (CTL response)	Immunogenicity In Vivo (IFA): No. CTL-Positive Cultures (CTL response)	immunogenicity of the peptide administered in IFA (in words) (CTL response)	immunogenicity in H-2^b mice (in words) [1]	MHC binding affinity (in words) [2]
CC(C)C[C@H](NC(=O)[C@@H](NC(=O)[C@@H](N)CO)[C@@H](C)O)C(=O)N1CCC[C@H]1C(=O)N[C@@H](CCC(=O)O)C(=O)N[C@H](C(=O)N[C@H](C(=O)N[C@H](C(=O)N[C@H](C(=O)N[C@@H](CCCNC(=N)N)C(=O)N[C@@H](CCCNC(=N)N)C(=O)O)C(C)C)C(C)C)[C@@H](C)O)[C@@H](C)O [HBV Core 141]	12.1 (2.6) ΔLU	6/6	–	–	–
CC(C)C[C@H](NC(=O)[C@H](CO)NC(=O)[C@H](CC(C)C)NC(=O)[C@@H](N)Cc1c[nH]c2ccccc12)C(=O)N[C@@H](CC(C)C)C(=O)N[C@H](C(=O)N1CCC[C@H]1C(=O)N[C@@H](Cc1ccccc1)C(=O)N[C@H](C(=O)O)C(C)C)C(C)C [HBV Env 335]	5.3 (1.6) ΔLU	4/6	immunogenic	–	–
CSCC[C@H](NC(=O)[C@@H](N)Cc1ccc(O)cc1)C(=O)N[C@@H](CC(=O)O)C(=O)N[C@@H](CC(=O)O)C(=O)N[C@H](C(=O)N[C@H](C(=O)N[C@@H](CC(C)C)C(=O)NCC(=O)N[C@@H](C)C(=O)O)C(C)C)C(C)C [HBV Pol 55 1-A]	–	0/6	weakly or nonimmunogenic; also recorded: essentially nonimmunogenic	–	–
CC[C@H](C)[C@H](NC(=O)CNC(=O)[C@H](C)NC(=O)[C@H](CCCCN)NC(=O)[C@H](Cc1c[nH]c2ccccc12)NC(=O)[C@H](CC(C)C)NC(=O)[C@@H](NC(=O)[C@@H](N)Cc1c[nH]cn1)[C@@H](C)O)C(=O)N[C@@H](CC(C)C)C(=O)N[C@@H](Cc1ccc(O)cc1)C(=O)N[C@@H](CCCCN)C(=O)O [HBV Pol 149]	13.1 (1.2) ΔLU	6/6	–	–	–
CC(C)[C@H](NC(=O)[C@@H](N)[C@@H](C)O)C(=O)N[C@@H](Cc1ccc(O)cc1)C(=O)N[C@@H](Cc1ccc(O)cc1)C(=O)NCC(=O)N[C@H](C(=O)N1CCC[C@H]1C(=O)N[C@H](C(=O)N[C@@H](Cc1c[nH]c2ccccc12)C(=O)N[C@@H](CCCCN)C(=O)O)C(C)C)C(C)C [HIV Env 49]	13.4 (3.1) ΔLU	28/33	–	–	–
CC[C@H](C)[C@H](N)C(=O)N[C@@H](CC(C)C)C(=O)N[C@@H](CCCCN)C(=O)N[C@@H](CCC(=O)O)C(=O)N1CCC[C@H]1C(=O)N[C@H](C(=O)N[C@@H](Cc1c[nH]cn1)C(=O)NCC(=O)N[C@H](C(=O)O)C(C)C)C(C)C [HIV Pol 476]	15.2 (2.9) ΔLU	2/5	–	–	–
AKFVAAWTLKAAA [PADRE]	–	–	–	highly immunogenic	high MHC binding affinity
